Measurements from patent US20080051387A1, “TETRAHYDROPYRIDO[3,4-D]PYRIMIDINES AND RELATED ANALOGUES” (priority 2006, published 2008).

Target: T1, chimeric human H3 receptor (Homo sapiens, UniProt Q9Y5N1)
T1 construct: rat Galpha-i2 (Gnai2, rat); made in house; host or cells: Sf9 insect cells (baculovirus); P2 membranes
Assay: Chimeric human H3 receptor GTP binding assay (agonist-stimulated GTP-gamma35S binding, Example 7)
Type: biochemical
Details: P2 membranes of Sf9 cells, 1 μM histamine as agonist, Ki from IC50 by Cheng-Prusoff; read-out: Ki
Source text: This Example illustrates a representative assay for evaluating agonist-stimulated GTP-gamma^35S binding (“GTP binding”) activity. […] This agonist-stimulated GTP binding activity can also be used to detect partial agonism mediated by antagonist compounds. A compound analyzed in this assay is referred to herein as a “test compound.”
Four independent baculoviral stocks (one directing the expression of the chimeric human H3 receptor and three directing the expression of each of the three subunits of a heterotrimeric G-protein) are used to infect a culture of Sƒ9 cells as described above. P2 membranes are prepared as described above, and agonist-stimulated GTP binding on the P2 membranes is assessed using histamine (Sigma Chemical Co., St. Louis, Mo.) as agonist in order to ascertain that the receptor/G-protein-alpha-beta-gamma combination(s) yield a functional response as measured by GTP binding. P2 membranes are resuspended by Dounce homogenization (tight pestle) in GTP binding assay buffer (50 mM Tris pH 7.4, 120 mM NaCl, 5 mM MgCl2, 2 mM EGTA, 1 mg/ml BSA, 0.2 mg/ml bacitracin, 0.02 mg/ml aprotinin, 0.01 mg/ml saponin, 10 μM GDP) and added to assay tubes at a concentration of 35 μg protein/reaction tube. After adding increasing doses of histamine at concentrations ranging from 10-12 M to 10^−5 M, reactions are initiated by the addition of 125 pM GTP-gamma^35S (PERKIN ELMER; Boston, Mass.) with a final assay volume of 0.20 ml. In competition experiments, non-radiolabeled test compounds are added to separate reactions at concentrations ranging from 10^−10 M to 10^−6 M along with 1 μM histamine to yield a final volume of 0.20 ml.
Neutral antagonists are antagonists that are substantially free of inherent agonist activity, and include those test compounds that reduce the histamine-stimulated GTP binding activity towards, but not below, baseline levels. In contrast, in the absence of added histamine, inverse agonists reduce the GTP binding activity of the receptor-containing membranes below baseline.
After a 60-min incubation at room temperature, reactions are terminated by vacuum filtration over WHATMAN GF/C filters (pre-soaked in wash buffer, 0.1% BSA) followed by washing with ice-cold wash buffer (50 mM Tris pH 7.4, 120 mM NaCl). The amount of receptor-bound (and thereby membrane-bound) GTP-gamma^35S is determined by measuring the filter-bound radioactivity, preferably by liquid scintillation spectrometry of the washed filters. Non-specific binding is determined in parallel assays including 10 μM unlabeled GTP-gammaS and typically represents less than 5 percent of total binding. Data is expressed as percent above basal (baseline). The results of GTP binding experiments are analyzed using SIGMAPLOT software (SPSS Inc., Chicago, Ill.). IC50 values are calculated by non-linear regression analysis of dose-response curves using Kaleidograph (Synergy Software, Reading, Pa.).
Alternatively the data is analyzed as follows. First, the average bound radioactivity from negative control wells (no agonist) is subtracted from the bound radioactivity detected for each of the other experimental wells. Second, average bound radioactivity is calculated for the positive control wells (agonist wells). Then, percent inhibition for each compound tested is calculated using the equation: [formula]
Calculated IC50 values are converted to Ki values by the Cheng-Prusoff correction (Cheng and Prusoff (1973) Biochem. Pharmacol. 22(23):3099-3108). Accordingly, the following equation: Ki=IC50/(1+[L]/EC50) is used, where [L] is the histamine concentration in the GTP binding assay, and EC50 is the concentration of histamine producing a 50% response, as determined by a dose-response analysis using concentrations of histamine ranging from 10^−10 M to 10^−6 M. […]

T1 sequence (Q9Y5N1 with tags, fused parts or gaps): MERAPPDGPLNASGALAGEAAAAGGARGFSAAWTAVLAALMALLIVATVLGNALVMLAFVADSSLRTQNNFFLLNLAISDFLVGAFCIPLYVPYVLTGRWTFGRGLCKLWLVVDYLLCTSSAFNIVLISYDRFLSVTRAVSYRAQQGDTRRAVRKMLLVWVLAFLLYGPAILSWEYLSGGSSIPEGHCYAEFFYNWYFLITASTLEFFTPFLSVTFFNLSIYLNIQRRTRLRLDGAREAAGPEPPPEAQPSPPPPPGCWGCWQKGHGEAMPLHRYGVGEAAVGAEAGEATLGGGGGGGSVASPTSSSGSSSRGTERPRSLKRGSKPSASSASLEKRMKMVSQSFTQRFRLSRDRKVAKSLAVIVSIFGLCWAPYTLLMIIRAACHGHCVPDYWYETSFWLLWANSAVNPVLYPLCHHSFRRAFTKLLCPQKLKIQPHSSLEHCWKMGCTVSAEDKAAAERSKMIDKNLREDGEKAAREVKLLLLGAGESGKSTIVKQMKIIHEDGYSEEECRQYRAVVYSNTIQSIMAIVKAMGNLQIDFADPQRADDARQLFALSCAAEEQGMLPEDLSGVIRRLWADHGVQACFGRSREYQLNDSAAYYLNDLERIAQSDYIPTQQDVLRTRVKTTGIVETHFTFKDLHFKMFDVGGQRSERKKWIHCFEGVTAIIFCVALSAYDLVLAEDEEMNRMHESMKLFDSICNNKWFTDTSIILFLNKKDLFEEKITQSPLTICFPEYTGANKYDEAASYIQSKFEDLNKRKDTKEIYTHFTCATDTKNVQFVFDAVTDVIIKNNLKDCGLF

Ki [µM] | SMILES
< 1 | c1ccc(CN2CCc3nc(N4CCN(C5CCC5)CC4)ncc3C2)cc1 [Compound 605, 6-benzyl-2-(4-cyclobutylpiperazin-1-yl)-5,6,7,8-tetrahydropyrido[4,3-d]pyrimidine]
< 1 | CCN1CCc2nc(N3CCN(C4CCC4)CC3)ncc2C1 [Compound 606, 2-(4-cyclobutylpiperazin-1-yl)-6-ethyl-5,6,7,8-tetrahydropyrido[4,3-d]pyrimidine]
< 1 | c1nc(N2CCN(C3CCC3)CC2)nc2c1CN(CC1CCCCC1)CC2 [Compound 607, 2-(4-cyclobutylpiperazin-1-yl)-6-(cyclohexylmethyl)-5,6,7,8-tetrahydropyrido[4,3-d]pyrimidine]
< 1 | CC(=O)N1CCc2nc(N3CCN(C4CCC4)CC3)ncc2C1 [Compound 608, 6-acetyl-2-(4-cyclobutylpiperazin-1-yl)-5,6,7,8-tetrahydropyrido[4,3-d]pyrimidine]
< 1 | c1nc(N2CCN(C3CCC3)CC2)nc2c1CN(C1CCC1)CC2 [Compound 609, 6-cyclobutyl-2-(4-cyclobutylpiperazin-1-yl)-5,6,7,8-tetrahydropyrido[4,3-d]pyrimidine]
< 1 | CC(=O)c1ccc(N2CCc3nc(N4CCN(C5CCC5)CC4)ncc3C2)nc1 [Compound 610, 1-{6-[2-(4-cyclobutylpiperazin-1-yl)-7,8-dihydropyrido[4,3-d]pyrimidin-6(5H)-yl]pyridin-3-yl}ethanone]
< 1 | CNC(=O)c1ccc(N2CCc3nc(N4CCN(C5CCC5)CC4)ncc3C2)nc1 [Compound 648, 6-[2-(4-cyclobutylpiperazin-1-yl)-7,8-dihydropyrido[4,3-d]pyrimidin-6(5H)-yl]-N-methylnicotinamide]

Same assay, conditions: assay of Example 7; symbol "*" in column headed Ki; read-out: Ki

Ki [µM] | SMILES
< 1 | O=C(c1ccccc1)N1CCc2cnc(N3CCN(C4CCC4)CC3)nc2CC1 [Compound 183, 7-benzoyl-2-(4-cyclobutylpiperazin-1-yl)-6,7,8,9-tetrahydro-5H-pyrimido[4,5-d]azepine]
< 1 | c1nc(N2CCN(C3CCC3)CC2)nc2c1CCN(C1CCC1)CC2 [Compound 590, 7-cyclobutyl-2-(4-cyclobutylpiperazin-1-yl)-6,7,8,9-tetrahydro-5H-pyrimido[4,5-d]azepine]
< 1 | c1nc(N2CCN(C3CCC3)CC2)nc2c1CCN(C1CCOCC1)CC2 [Compound 591, 2-(4-cyclobutylpiperazin-1-yl)-7-(tetrahydro-2H-pyran-4-yl)-6,7,8,9-tetrahydro-5H-pyrimido[4,5-d]azepine]
< 1 | FC(F)(F)CN1CCc2cnc(N3CCN(C4CCC4)CC3)nc2CC1 [Compound 592, 2-(4-cyclobutylpiperazin-1-yl)-7-(2,2,2-trifluoroethyl)-6,7,8,9-tetrahydro-5H-pyrimido[4,5-d]azepine]
< 1 | COCCN1CCc2cnc(N3CCN(C4CCC4)CC3)nc2CC1 [Compound 593, 2-(4-cyclobutylpiperazin-1-yl)-7-(2-methoxyethyl)-6,7,8,9-tetrahydro-5H-pyrimido[4,5-d]azepine]
< 1 | FC1(F)CCC(CN2CCc3cnc(N4CCN(C5CCC5)CC4)nc3CC2)CC1 [Compound 594, 2-(4-cyclobutylpiperazin-1-yl)-7-[(4,4-difluorocyclohexyl)methyl]-6,7,8,9-tetrahydro-5H-pyrimido[4,5-d]azepine]
< 1 | FC(F)(F)CCN1CCc2cnc(N3CCN(C4CCC4)CC3)nc2CC1 [Compound 595, 2-(4-cyclobutylpiperazin-1-yl)-7-(3,3,3-trifluoropropyl)-6,7,8,9-tetrahydro-5H-pyrimido[4,5-d]azepine]
< 1 | CC1CCC[C@@H]2CN(c3ncc4c(n3)CCN(C3CCC3)CC4)CCN12 (some centres unmarked) [Compound 596, 7-cyclobutyl-2-(6-methyloctahydro-2H-pyrido[1,2-a]pyrazin-2-yl)-6,7,8,9-tetrahydro-5H-pyrimido[4,5-d]azepine]
< 1 | CC1CCC[C@@H]2CN(c3ncc4c(n3)CCN(CC3CCOCC3)CC4)CCN12 (some centres unmarked) [Compound 597, 2-(6-methyloctahydro-2H-pyrido[1,2-a]pyrazin-2-yl)-7-(tetrahydro-2H-pyran-4-ylmethyl)-6,7,8,9-tetrahydro-5H-pyrimido[4,5-d]azepine]
< 1 | CCN1CCN(c2ncc3c(n2)CCN(CC2CCOCC2)CC3)CC1 [Compound 598, 2-(4-ethylpiperazin-1-yl)-7-(tetrahydro-2H-pyran-4-ylmethyl)-6,7,8,9-tetrahydro-5H-pyrimido[4,5-d]azepine]
< 1 | CCN1CCN(c2ncc3c(n2)CCN(C2CCC2)CC3)CC1 [Compound 599, 7-cyclobutyl-2-(4-ethylpiperazin-1-yl)-6,7,8,9-tetrahydro-5H-pyrimido[4,5-d]azepine]
< 1 | CC(=O)N1CCN(c2ncc3c(n2)CCN(C2CCC2)CC3)CC1 [Compound 600, 2-(4-acetylpiperazin-1-yl)-7-cyclobutyl-6,7,8,9-tetrahydro-5H-pyrimido[4,5-d]azepine]
< 1 | CC(C)(C)OC(=O)N1CCN(c2ncc3c(n2)CCN(C2CCC2)CC3)CC1 [Compound 601, tert-butyl 4-(7-cyclobutyl-6,7,8,9-tetrahydro-5H-pyrimido[4,5-d]azepin-2-yl)piperazine-1-carboxylate]
< 1 | FC(F)(F)CN1CCN(c2ncc3c(n2)CCN(C2CCC2)CC3)CC1 [Compound 602, 7-cyclobutyl-2-[4-(2,2,2-trifluoroethyl)piperazin-1-yl]-6,7,8,9-tetrahydro-5H-pyrimido[4,5-d]azepine]
< 1 | CNC(=O)c1ccc(N2CCN(c3ncc4c(n3)CCN(CC3CCOCC3)CC4)CC2)nc1 [Compound 603, N-methyl-6-{4-[7-(tetrahydro-2H-pyran-4-ylmethyl)-6,7,8,9-tetrahydro-5H-pyrimido[4,5-d]azepin-2-yl]piperazin-1-yl}nicotinamide]
< 1 | CNC(=O)c1ccc(N2CCN(c3ncc4c(n3)CCN(C3CCC3)CC4)CC2)nc1 [Compound 604, 6-[4-(7-cyclobutyl-6,7,8,9-tetrahydro-5H-pyrimido[4,5-d]azepin-2-yl]piperazin-1-yl]-N-methylnicotinamide]
